We go through 66 compounds from patent US9150546B2, “Triazine derivative and pharmaceutical composition comprising the same” (SHIONOGI & CO., LTD., priority 2009, dated 2015).

pIC50: −log10 of the molar value.

For the assay, the target named is human P2X3 receptor (Homo sapiens (Human), UniProt P56373). Put plainly: P2X3 receptor inhibition, ATP-evoked Fluo-3 fluorescence (FDSS 3000). In kind it is cell-based. The settings on record: C6BU-1 cell transfected with human P2X3 receptor gene.
Chain of human P2X3 receptor (P56373 whole entry): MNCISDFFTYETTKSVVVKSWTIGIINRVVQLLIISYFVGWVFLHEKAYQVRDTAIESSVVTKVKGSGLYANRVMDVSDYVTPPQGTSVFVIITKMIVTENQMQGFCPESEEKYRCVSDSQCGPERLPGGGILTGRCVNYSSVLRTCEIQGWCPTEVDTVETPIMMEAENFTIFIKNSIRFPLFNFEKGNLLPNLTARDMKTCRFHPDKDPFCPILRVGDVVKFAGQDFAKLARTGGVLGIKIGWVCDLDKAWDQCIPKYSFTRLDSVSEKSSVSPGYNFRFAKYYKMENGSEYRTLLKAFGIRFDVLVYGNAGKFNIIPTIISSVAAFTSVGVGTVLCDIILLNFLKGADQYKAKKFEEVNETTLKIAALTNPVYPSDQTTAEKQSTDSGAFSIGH
As to `Cc1ccc(Cn2c(=O)n(CC(C)(C)C(=O)O)c(=O)[nH]/c2=N\c2ccc(OC(C)C)c(Cl)c2)cc1` [I-408], the pIC50 (usually −log10 of the IC50, conventionally taken in molar units) was 8.00.
`COC(=O)CCn1c(=O)[nH]/c(=N\c2ccc(OC(C)C)c(F)c2)n(Cc2ccc(C)cc2)c1=O` [I-409] showed a pIC50 of 7.92.
As to `COC(=O)Cn1c(=O)[nH]/c(=N\c2ccc(OC(C)C)c(F)c2)n(Cc2ccc(C)cc2)c1=O` [I-410], the pIC50 is 7.36.
In turn, `Cc1ccc(Cn2c(=O)n(CCC(=O)O)c(=O)[nH]/c2=N\c2ccc(OC(C)C)c(F)c2)cc1` [I-411] had a pIC50 of 7.21.
The compound `Cc1ccc(Cn2c(=O)n(CC(C)(C)C(=O)O)c(=O)[nH]/c2=N\c2ccc(OC(C)C)c(F)c2)cc1F` [I-413] gave a pIC50 of 7.00.
For the compound `Cc1ccc(Cn2c(=O)n(CC(=O)NC(CO)CO)c(=O)[nH]/c2=N\c2ccc(OC(C)C)c(F)c2)cc1` [I-414], the negative-log IC50 (pIC50) is 8.15.
To `Cc1ccc(Cn2c(=O)n(CC(=O)NC(C)(C)C(=O)O)c(=O)[nH]/c2=N\c2ccc(OC(C)C)c(F)c2)cc1` [I-415] belongs 6.50; to `Cc1ccc(Cn2c(=O)n(CC(=O)NCC(=O)O)c(=O)[nH]/c2=N\c2ccc(OC(C)C)c(F)c2)cc1` [I-416], 7.46.
`Cc1ccc(Cn2c(=O)n(CC(=O)N[C@H](C)C(=O)O)c(=O)[nH]/c2=N\c2ccc(OC(C)C)c(F)c2)cc1` [I-417] gave a pIC50 of 7.46.
To `Cc1ccc(Cn2c(=O)n(CC(=O)N[C@@H](C)C(=O)O)c(=O)[nH]/c2=N\c2ccc(OC(C)C)c(F)c2)cc1` [I-418] belongs 6.70; to `Cc1ccc(Cn2c(=O)n(CC(=O)NC3(C(=O)O)CC3)c(=O)[nH]/c2=N\c2ccc(OC(C)C)c(F)c2)cc1` [I-419], 7.15; to `CC(C)Oc1ccc(/N=c2\[nH]c(=O)n(CCC(C)(C)C(=O)O)c(=O)n2Cc2ccc(Cl)cc2)cc1F` [I-420], 7.28.
For `CC(C)Oc1ccc(/N=c2\[nH]c(=O)n(CCC(C)(C)C(=O)O)c(=O)n2Cc2ccc(Cl)cc2)cc1Cl` [I-421] the value was 7.72; for `CCOC(=O)C1(Cn2c(=O)[nH]/c(=N\c3ccc(OC(C)C)c(F)c3)n(Cc3ccc(Cl)cc3)c2=O)CC1` [I-422], 8.22.
To `CCOC(=O)C1(Cn2c(=O)[nH]/c(=N\c3ccc(OC(C)C)c(Cl)c3)n(Cc3ccc(Cl)cc3)c2=O)CC1` [I-423] belongs 8.40; to `CC(C)Oc1ccc(/N=c2\[nH]c(=O)n(CC3(C(=O)O)CC3)c(=O)n2Cc2ccc(Cl)cc2)cc1F` [I-424], 7.31; to `CC(C)Oc1ccc(/N=c2\[nH]c(=O)n(CC3(C(=O)O)CC3)c(=O)n2Cc2ccc(Cl)cc2)cc1Cl` [I-425], 7.80.
The compound `COC(=O)C(C)(C)Cn1c(=O)[nH]/c(=N\c2ccc(O)c(Cl)c2)n(Cc2ccc(Cl)cc2)c1=O` [I-426] gave a pIC50 of 6.68.
For `COC(=O)C(C)(C)Cn1c(=O)[nH]/c(=N\c2ccc3c(ccn3C)c2)n(Cc2ccc(Cl)cc2)c1=O` [I-427] the value was 6.17; for `CC(C)(Cn1c(=O)[nH]/c(=N\c2ccc(O)c(Cl)c2)n(Cc2ccc(Cl)cc2)c1=O)C(=O)O` [I-429], 6.11; for `COC(=O)C(C)(C)Cn1c(=O)[nH]/c(=N\c2ccc(OC(C)C)c(C)c2)n(Cc2ccc(Cl)cc2)c1=O` [I-431], 8.40.
`Cc1cc(/N=c2\[nH]c(=O)n(CC(C)(C)C(=O)O)c(=O)n2Cc2ccc(Cl)cc2)ccc1OC(C)C` [I-432] had a negative-log IC50 (pIC50) of 7.59.
To `COc1nc(=O)n(Cc2ccc(Cl)cc2)/c(=N/c2ccc(OC(C)C)c(Cl)c2)[nH]1` [I-433] belongs 6.70; to `CC(C)Oc1ccc(/N=c2\[nH]c(=O)n(CC(=O)NCC#N)c(=O)n2Cc2ccc(Cl)cc2)cc1Cl` [I-435], 8.22; to `CNC(=O)Cn1c(=O)[nH]/c(=N\c2ccc(OC(C)C)c(Cl)c2)n(Cc2ccc(Cl)cc2)c1=O` [I-436], 8.10.
Compound `CC(C)Oc1ccc(/N=c2\[nH]c(=O)n(CC(=O)NCCO)c(=O)n2Cc2ccc(Cl)cc2)cc1Cl` [I-437] showed a pIC50 of 8.22.
Take `CC(C)Oc1ccc(/N=c2\[nH]c(=O)n(CC(=O)NCC(N)=O)c(=O)n2Cc2ccc(Cl)cc2)cc1Cl` [I-438]: the pIC50 was 8.30. The pIC50 values of the last two compounds are within 0.2 log units of each other.
`CC(C)Oc1ccc(/N=c2\[nH]c(=O)n(CCC(=O)NCC#N)c(=O)n2Cc2ccc(Cl)cc2)cc1F` [I-439] gave a pIC50 of 7.74.
To `CC(C)Oc1ccc(/N=c2\[nH]c(=O)n(CCC(=O)NCC(N)=O)c(=O)n2Cc2ccc(Cl)cc2)cc1F` [I-440] belongs 7.26.
Take `CCOc1ccc(/N=c2\[nH]c(=O)n(CC(C)(C)C(=O)OC)c(=O)n2Cc2ccc(Cl)cc2)cc1Cl` [I-441]: the pIC50 is 7.96.
For `COC(=O)C(C)(C)Cn1c(=O)[nH]/c(=N\c2ccc(OC)c(C)c2)n(Cc2ccc(Cl)cc2)c1=O` [I-442] the value was 6.93.
For `COC(=O)C(C)(C)Cn1c(=O)[nH]/c(=N\c2cccc(OC(F)F)c2)n(Cc2ccc(Cl)cc2)c1=O` [I-443] the value was 6.68.
For `COC(=O)c1ccc(Cn2c(=O)[nH]/c(=N\c3ccc(OC(C)C)c(F)c3)n(Cc3ccc(Cl)cc3)c2=O)cc1` [I-444], the pIC50 was 7.77. This pIC50 lies 1.09 log units higher than the previous one.
To `CC(C)Oc1ccc(/N=c2\[nH]c(=O)n(Cc3ccc(C(=O)O)cc3)c(=O)n2Cc2ccc(Cl)cc2)cc1F` [I-445] belongs 8.10; to `CCOc1ccc(/N=c2\[nH]c(=O)n(CC(C)(C)C(=O)O)c(=O)n2Cc2ccc(Cl)cc2)cc1Cl` [I-446], 7.70; to `COc1ccc(/N=c2\[nH]c(=O)n(CC(C)(C)C(=O)O)c(=O)n2Cc2ccc(Cl)cc2)cc1C` [I-447], 6.55.
For `CC(C)(Cn1c(=O)[nH]/c(=N\c2cccc(OC(F)F)c2)n(Cc2ccc(Cl)cc2)c1=O)C(=O)O` [I-448], the negative-log IC50 (pIC50) is 6.41.
To `COC(=O)c1cccc(Cn2c(=O)[nH]/c(=N\c3ccc(OC(C)C)c(F)c3)n(Cc3ccc(Cl)cc3)c2=O)c1` [I-450] belongs 7.44.
For `CC(C)Oc1ccc(/N=c2\[nH]c(=O)n(Cc3cccc(C(=O)O)c3)c(=O)n2Cc2ccc(Cl)cc2)cc1F` [I-451] the value was 7.80.
On to `COC(=O)[C@H](C)Cn1c(=O)[nH]/c(=N\c2ccc(OC(C)C)c(F)c2)n(Cc2ccc(Cl)cc2)c1=O` [I-452], for which the pIC50 is 8.52. Against the preceding compound, the pIC50 is 0.72 log units higher.
To `COC(=O)[C@@H](C)Cn1c(=O)[nH]/c(=N\c2ccc(OC(C)C)c(F)c2)n(Cc2ccc(Cl)cc2)c1=O` [I-453] belongs 8.30.
The compound `CCOC(=O)c1ccccc1Cn1c(=O)[nH]/c(=N\c2ccc(OC(C)C)c(F)c2)n(Cc2ccc(Cl)cc2)c1=O` [I-454] had a pIC50 of 7.62.
For `CC(C)Oc1ccc(/N=c2\[nH]c(=O)n(C[C@@H](C)C(=O)O)c(=O)n2Cc2ccc(Cl)cc2)cc1F` [I-455], the pIC50 is 7.52.
To `CC(C)Oc1ccc(/N=c2\[nH]c(=O)n(C[C@H](C)C(=O)O)c(=O)n2Cc2ccc(Cl)cc2)cc1F` [I-456] belongs 8.10; to `COC(=O)[C@H](C)Cn1c(=O)[nH]/c(=N\c2ccc(OC(C)C)c(Cl)c2)n(Cc2ccc(Cl)cc2)c1=O` [I-457], 8.52.
For `COC(=O)[C@@H](C)Cn1c(=O)[nH]/c(=N\c2ccc(OC(C)C)c(Cl)c2)n(Cc2ccc(Cl)cc2)c1=O` [I-458] the value was 8.40; for `CC(C)Oc1ccc(/N=c2\[nH]c(=O)n(Cc3ccccc3C(=O)O)c(=O)n2Cc2ccc(Cl)cc2)cc1F` [I-459], 7.41; for `CC(C)Oc1ccc(/N=c2\[nH]c(=O)n(C[C@@H](C)C(=O)O)c(=O)n2Cc2ccc(Cl)cc2)cc1Cl` [I-460], 7.80.
Take `CC(C)Oc1ccc(/N=c2\[nH]c(=O)n(C[C@H](C)C(=O)O)c(=O)n2Cc2ccc(Cl)cc2)cc1Cl` [I-461]: the pIC50 is 8.05.
For `CCOc1ccc(/N=c2\[nH]c(=O)n(CC(C)(C)C(=O)OC)c(=O)n2Cc2ccc(Cl)cc2)cc1C` [I-462] the value was 8.40.
For `Cc1ccc(/N=c2\[nH]c(=O)n(CC(C)(C)C(=O)O)c(=O)n2Cc2ccc(Cl)cc2)cc1C` [I-464] the value was 6.25.
To `CCOc1ccc(/N=c2\[nH]c(=O)n(CC(C)(C)C(=O)O)c(=O)n2Cc2ccc(Cl)cc2)cc1C` [I-465] belongs 7.24; to `COC(=O)C(C)(C)Cn1c(=O)[nH]/c(=N\c2cccc(Cl)c2)n(Cc2ccc(Cl)cc2)c1=O` [I-466], 7.43.
With `COC(=O)C(C)(C)Cn1c(=O)[nH]/c(=N\c2cccc(OC(F)(F)F)c2)n(Cc2ccc(Cl)cc2)c1=O` [I-467], the pIC50 was 7.43.
To `CC(C)(Cn1c(=O)[nH]/c(=N\c2cccc(Cl)c2)n(Cc2ccc(Cl)cc2)c1=O)C(=O)O` [I-468] belongs 6.86; to `CC(C)(Cn1c(=O)[nH]/c(=N\c2cccc(OC(F)(F)F)c2)n(Cc2ccc(Cl)cc2)c1=O)C(=O)O` [I-469], 7.00.
`COC(=O)C(C)(C)Cn1c(=O)[nH]/c(=N\c2ccc3[nH]ccc3c2)n(Cc2ccc(Cl)cc2)c1=O` [I-470] showed a pIC50 of 7.10.
`COC(=O)C(C)(C)Cn1c(=O)[nH]/c(=N\c2cccc(C(F)(F)F)c2)n(Cc2ccc(Cl)cc2)c1=O` [I-471] gave a pIC50 of 7.62.
`COC(=O)C(C)(C)Cn1c(=O)[nH]/c(=N\c2ccc(OC(C)C)nc2)n(Cc2ccc(Cl)cc2)c1=O` [I-473] showed a pIC50 of 6.23.
To `COC(=O)C(C)n1c(=O)[nH]/c(=N\c2ccc(OC(C)C)c(F)c2)n(Cc2ccc(Cl)cc2)c1=O` (stereo not drawn) [I-474] belongs 7.85; to `CC(C)Oc1ccc(/N=c2\[nH]c(=O)n(C(C)C(=O)O)c(=O)n2Cc2ccc(Cl)cc2)cc1F` (stereo not drawn) [I-475], 6.24.
To `CC(C)(Cn1c(=O)[nH]/c(=N\c2cccc(C(F)(F)F)c2)n(Cc2ccc(Cl)cc2)c1=O)C(=O)O` [I-476] belongs 7.46; to `CC(C)(Cn1c(=O)[nH]/c(=N\c2ccc(Cl)c(Cl)c2)n(Cc2ccc(Cl)cc2)c1=O)C(=O)O` [I-477], 7.25; to `CC(C)(Cn1c(=O)[nH]/c(=N\c2ccc3[nH]ccc3c2)n(Cc2ccc(Cl)cc2)c1=O)C(=O)O` [I-478], 6.20.
To `COC(=O)[C@H](C)Cn1c(=O)[nH]/c(=N\c2ccc(OC(C)C)cc2)n(Cc2ccc(Cl)cc2)c1=O` [I-479] belongs 8.15; to `CCOc1ccc(/N=c2\[nH]c(=O)n(C[C@@H](C)C(=O)OC)c(=O)n2Cc2ccc(Cl)cc2)cc1` [I-480], 7.92.
